# Laboratory results taken from patent publication US10336697B2, “Spiro[cyclobutane-1,3′-indolin]-2′-one derivatives as bromodomain inhibitors” (Orion Corporation, priority 2015, dated 2019).
# pIC50: −log10 of the molar value. Counter-ions that a name gives are not always drawn.
# Molecular target: Bet BRD4 full length bromo-domain protein (Homo sapiens, UniProt O60885)
# Assay: Bet bromodomain TR-FRET assay (displacement of acetyl histone peptide)
# Format: binding
# Details: Bet BRD4 full length bromodomain protein, 300 nM acetyl histone peptide substrate, read-out: IC50
row,pIC50,Structure (SMILES)
1,> 6.22,"COc1ccccc1S(=O)(=O)Nc1cc(C(C)c2ccccn2)c2c(c1)C1(CCC1)C(=O)N2 (stereo not shown) [Compound 123, 2-Methoxy-N-(2′-oxo-7′-(1-(pyridin-2-yl)ethyl)spiro [cyclobutane-1,3′-indolin]-5′-yl)benzenesulfonamide]"
2,> 6.22,"O=C1CCC(c2cc(NS(=O)(=O)c3ccc(F)cc3F)cc3c2NC(=O)C32CCC2)CN1 (stereo not shown) [Compound 105, 2,4-Difluoro-N-(2′-oxo-7′-(6-oxopiperidin-3-yl)spiro [cyclobutane-1,3′-indolin]-5′-yl)benzenesulfonamide]"
3,> 6.22,"CN1CCC(Oc2cc(NC(=O)/C=C/c3ccccc3)cc3c2NC(=O)C32CCC2)CC1 [compound 219, N-(7′-((1-methylpiperidin-4-yl)oxy)-2′-oxospiro[cyclobutane-1,3′-indolin]-5′-yl)cinnamamide]"
4,> 6.22,"COc1ccccc1S(=O)(=O)Nc1cc(OC2CCN(CCO)CC2)c2c(c1)C1(CCC1)C(=O)N2 [Compound-209, N-(7′-((1-(2-hydroxyethyl)piperidin-4-yl)oxy)-2′-oxospiro[cyclobutane-1,3′-indolin]-5′-yl)-2-methoxybenzenesulfonamide]"
5,6.00 to 6.22,"O=C1Nc2c(NC3CCNCC3F)cc(NS(=O)(=O)c3ccc(F)cc3F)cc2C12CCC2 (stereo not shown) [Compound 102, 2,4-Difluoro-N-(7′-((3-fluoropiperidin-4-yl)amino)-2′-oxospiro[cyclobutane-1,3′-indolin]-5′-yl)benzenesulfonamide]"
6,> 6.22,"COc1ccccc1S(=O)(=O)Nc1cc(OCCN2CCCC2)c2c(c1)C1(CCC1)C(=O)N2 [Compound 167, 2-Methoxy-N-(2′-oxo-7′-(2-(pyrrolidin-1-yl)ethoxy)spiro[cyclobutane-1,3′-indolin]-5′-yl)benzenesulfonamide]"
7,> 6.22,"COc1ccccc1S(=O)(=O)Nc1cc(NCC2CC2)c2c(c1)C1(CCC1)C(=O)N2 [Compound 13, N-(7′-((cyclopropylmethyl)amino)-2′-oxospiro[cyclobutane-1,3′-indolin]-5′-yl)-2-methoxybenzenesulfonamide]"
8,6.00 to 6.22,"CC(Oc1cc(NS(=O)(=O)c2ccc(Cl)cc2F)cc2c1NC(=O)C21CCC1)c1ccccn1 (single isomer, unassigned) [Compound 155, 4-Chloro-2-fluoro-N-(2′-oxo-7′-(1-(pyridin-2-yl)ethoxy)spiro[cyclobutane-1,3′-indolin]-5′-yl)benzenesulfonamide]"
9,> 6.22,"O=C1Nc2c(-c3cccc(O)c3)cc(NS(=O)(=O)c3ccc(F)cc3F)cc2C12CCC2 [Compound 1, 2,4-difluoro-N-(7′-(3-hydroxyphenyl)-2′-oxospiro[cyclobutane-1,3′-indolin]-5′-yl)benzenesulfonamide]"
10,> 6.22,"O=C1Nc2c(NC3CCNCC3)cc(NS(=O)(=O)c3ccc(F)cc3F)cc2C12CCC2 [Compound 79a, 2,4-Difluoro-N-(2′-oxo-7′-(piperidin-4-ylamino)spiro [cyclobutane-1,3′-indolin]-5′-yl)benzenesulfonamide]"
11,> 6.22,"COc1cc(F)ccc1S(=O)(=O)Nc1cc(OC2CCN(C)CC2)c2c(c1)C1(CCC1)C(=O)N2 [Compound-189, 4-Fluoro-2-methoxy-N-(7′-((1-methylpiperidin-4-yl)oxy)-2′-oxospiro[cyclobutane-1.3′-indolin]-5′-yl)benzenesulfonamide]"
12,> 6.22,"O=C(Nc1ccncc1)c1cc(NS(=O)(=O)c2ccc(F)cc2F)cc2c1NC(=O)C21CCC1 [Compound 57, 5′-(2,4-Difluorophenylsulfonamido)-2′-oxo-N-(pyridin-4-yl)spiro[cyclobutane-1,3′-indoline]-7′-carboxamide]"
13,> 6.22,"Cn1cnc(CNc2cc(NS(=O)(=O)c3ccc(F)cc3F)cc3c2NC(=O)C32CCC2)c1 [Compound 31, 2,4-Difluoro-N-(7′-(((1-methyl-1H-imidazol-4-yl)methyl)amino)-2′-oxospiro[cyclobutane-1,3′-indolin]-5′-yl)benzenesulfonamide]"
14,> 6.22,COc1ccccc1S(=O)(=O)Nc1cc(OC2CCN(C(C)=O)CC2)c2c(c1)C1(CCC1)C(=O)N2 [Compound-220]
15,> 6.22,"COc1ccccc1S(=O)(=O)Nc1cc(C(C)c2ccccc2)c2c(c1)C1(CCC1)C(=O)N2 (single isomer, unassigned) [Compound 114, 2-Methoxy-N-(2′-oxo-7′-(1-phenylethyl)spiro [cyclobutane-1,3′-indolin]-5′-yl)benzenesulfonamide]"
16,< 6.00,"CN1CCC(NC(=O)c2cc(NC(=O)c3ccc(F)cc3F)cc3c2NC(=O)C32CCC2)CC1 [Compound 75, 5′-(2,4-Difluorobenzamido)-N-(1-methylpiperidin-4-yl)-2′-oxospiro[cyclobutane-1,3′-indoline]-7′-carboxamide]"
17,> 6.22,"O=C1Nc2c(OC3CCNCC3F)cc(NS(=O)(=O)c3ccc(Cl)cc3F)cc2C12CCC2 (stereo not shown) [compound 198, 4-Chloro-2-fluoro-N-(7′-((3-fluoropiperidin-4-yl)oxy)-2′-oxospiro[cyclobutane-1,3′-indolin]-5′-yl)benzenesulfonamide]"

row,pIC50,Structure (SMILES)
1,> 6.22,"COc1ccccc1S(=O)(=O)Nc1cc(C(F)c2ccccc2)c2c(c1)C1(CCC1)C(=O)N2 (stereo not shown) [Compound 125, N-(7′-(fluoro(phenyl)methyl)-2′-oxospiro[cyclobutane-1,3′-indolin]-5′-yl)-2-methoxybenzenesulfonamide]"
2,> 6.22,"O=C1Nc2c(NCc3cccnc3)cc(NS(=O)(=O)c3ccc(F)cc3F)cc2C12CCC2 [Compound 27, 2,4-difluoro-N-(2′-oxo-7′-((pyridin-3-ylmethyl)amino)spiro[cyclobutane-1,3′-indolin]-5′-yl)benzenesulfonamide]"
3,> 6.22,"Cc1nc(CNc2cc(NS(=O)(=O)c3ccc(F)cc3F)cc3c2NC(=O)C32CCC2)c[nH]1 [Compound 30, 2,4-Difluoro-N-(7′-(((2-methyl-1H-imidazol-4-yl)methyl)amino)-2′-oxospiro[cyclobutane-1,3′-indolin]-5′-yl)benzenesulfonamide]"
4,> 6.22,"COc1ccccc1S(=O)(=O)Nc1cc(N)c2c(c1)C1(CCC1)C(=O)N2 [Compound 12, N-(7′-amino-2′-oxospiro[cyclobutane-1,3′-indolin]-5′-yl)-2-methoxy-benzenesulfonamide]"
5,> 6.22,"COc1ccccc1S(=O)(=O)Nc1cc(OCC2CN(C)C2)c2c(c1)C1(CCC1)C(=O)N2 [Compound-190, 2-Methoxy-N-(7′-((1-methylazetidin-3-yl)methoxy)-2′-oxospiro [cyclobutane-1,3′-indolin]-5′-yl)benzenesulfonamide]"
6,> 6.22,"COc1ccccc1S(=O)(=O)Nc1cc(NC2CCN(C)CC2)c2c(c1)C1(CCC1)C(=O)N2 [Compound 39, 2-Methoxy-N-(7′-((1-methylpiperidin-4-yl)amino)-2′-oxospiro[cyclobutane-1,3′-indolin]-5′-yl)benzenesulfonamide]"
7,> 6.22,"COc1ccccc1S(=O)(=O)Nc1cc(OC2CCNCC2)c2c(c1)C1(CCC1)C(=O)N2 [compound 199, 2-Methoxy-N-(2′-oxo-7′-(piperidin-4-yloxy)spiro[cyclobutane-1,3′-indolin]-5′-yl)benzenesulfonamide]"
8,6.00 to 6.22,"O=C(O)c1cc(NS(=O)(=O)c2ccc(F)cc2F)cc2c1NC(=O)C21CCC1 [Compound 42, 5′-((2,4-difluorophenyl)sulfonamido)-2′-oxospiro[cyclobutane-1,3′-indoline]-7′-carboxylic acid]"
9,> 6.22,"Nc1cc(NS(=O)(=O)c2ccc(F)cc2F)cc2c1NC(=O)C21CCC1 [Compound 15, N-(7′-amino-2′-oxospiro[cyclobutane-1,3′-indolin]-5′-yl)-2,4-difluoro-benzenesulfonamide]"
10,> 6.22,"O=C1NCCc2ccc(-c3cc(NS(=O)(=O)c4ccc(F)cc4F)cc4c3NC(=O)C43CCC3)cc21 [Compound 4, 2,4-Difluoro-N-(2′-oxo-7′-(1-oxo-1,2,3,4-tetrahydroisoquinolin-7-yl)spiro[cyclobutane-1,3′-indolin]-5′-yl)benzenesulfonamide]"
11,> 6.22,"O=C1Nc2c(NC3CCCNC3)cc(NS(=O)(=O)c3ccc(F)cc3F)cc2C12CCC2 (stereo not shown) [Compound 71, 2,4-Difluoro-N-(2′-oxo-7′-(piperidin-3-ylamino)spiro[cyclobutane-1,3′-indolin]-5′-yl)benzenesulfonamide hydrochloride]"
12,> 6.22,"O=C1Nc2c(OC3CCS(=O)(=O)CC3)cc(NS(=O)(=O)c3ccc(Cl)cc3F)cc2C12CCC2 [Compound 144, 4-Chloro-N-(7′-((1,1-dioxidotetrahydro-2H-thiopyran-4-yl)oxy)-2′-oxospiro[cyclobutane-1,3′-indolin]-5′-yl)-2-fluorobenzenesulfonamide]"
13,6.00 to 6.22,"CN1CCc2ccc(-c3cc(NS(=O)(=O)c4ccc(F)cc4F)cc4c3NC(=O)C43CCC3)cc2C1=O [Compound 6, 2,4-Difluoro-N-(7′-(2-methyl-1-oxo-1,2,3,4-tetrahydroisoquinolin-7-yl)-2′-oxospiro[cyclobutane-1,3′-indolin]-5′-yl)benzenesulfonamide]"
14,> 6.22,"CN1CCC(c2cc(NS(=O)(=O)c3ccc(F)cc3F)cc3c2NC(=O)C32CCC2)CC1 [Compound 89, 2,4-Difluoro-N-(7′-(1-methylpiperidin-4-yl)-2′-oxospiro[cyclobutane-1,3′-indolin]-5′-yl)benzenesulfonamide]"
15,> 6.22,"CCNCCOc1cc(NS(=O)(=O)c2ccccc2OC)cc2c1NC(=O)C21CCC1 [compound 205, N-(7′-(2-(ethylamino)ethoxy)-2′-oxospiro[cyclobutane-1,3′-indolin]-5′-yl)-2-methoxybenzenesulfonamide]"
16,6.00 to 6.22,"CCOC(=O)N1CCC(Nc2cc(NS(=O)(=O)c3ccc(F)cc3F)cc3c2NC(=O)C32CCC2)CC1 [Compound 22, Ethyl 4-((5′-(2,4-difluorophenylsulfonamido)-2′-oxospiro [cyclobutane-1,3′-indolin]-7′-yl)amino)piperidine-1-carboxylate]"
17,> 6.22,"NC1(COc2cc(NS(=O)(=O)c3ccc(Cl)cc3F)cc3c2NC(=O)C32CCC2)CC1 [compound 207, N-(7′-((1-aminocyclopropyl)methoxy)-2′-oxospiro[cyclobutane-1,3′-indolin]-5′-yl)-4-chloro-2-fluorobenzenesulfonamide]"
